{
  "source": "patent US8252841B2",
  "about": "“Methods of inhibiting bacterial virulence and compounds relating thereto” (priority 2007, dated 2012)",
  "key": {"QseC [1]": {"biological_target": "T1, QseC (Escherichia coli O157:H7, UniProt Q8X524)", "T1 construct": "His (C); made in house; host or cells: E. coli (arabinose-induced, pVS155), nickel column purification", "T1 sequence (Q8X524 whole entry)": "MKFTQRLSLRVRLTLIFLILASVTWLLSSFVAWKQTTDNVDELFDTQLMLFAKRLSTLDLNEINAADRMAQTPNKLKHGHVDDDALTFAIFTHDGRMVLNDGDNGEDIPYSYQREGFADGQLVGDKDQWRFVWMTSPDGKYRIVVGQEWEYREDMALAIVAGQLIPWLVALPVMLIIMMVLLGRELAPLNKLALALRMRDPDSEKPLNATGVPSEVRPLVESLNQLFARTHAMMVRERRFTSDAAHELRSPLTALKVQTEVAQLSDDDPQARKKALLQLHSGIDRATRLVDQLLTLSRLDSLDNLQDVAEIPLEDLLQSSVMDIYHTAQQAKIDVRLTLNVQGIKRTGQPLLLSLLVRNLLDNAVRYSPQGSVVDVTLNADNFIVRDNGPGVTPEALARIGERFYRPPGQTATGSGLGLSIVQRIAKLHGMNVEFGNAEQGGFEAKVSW", "assay": "Binding of tritiated norepinephrine to QseC in liposomes", "parameters": "species or system E. coli", "details": "5 μM tritiated NE"}, "QseC [2]": {"biological_target": "T1, QseC", "assay": "QseC autophosphorylation in liposomes", "assay_type": "biochemical, E. coli"}, "[3]": {"system": "EHEC virulence genes (ler, eae, flhDC, stx2A)", "assay_type": "cell-based, enterohemorrhagic E. coli (EHEC)"}, "EHEC strain 8624 [4]": {"system": "EHEC strain 8624", "assay": "Western blot of EHEC secreted proteins EspA and EspB", "assay_type": "cell-based, enterohemorrhagic E. coli (EHEC)", "details": "50 μM epinephrine plus 5 nM or 5 pM LED209"}, "EHEC AE lesion formation": {"system": "EHEC AE lesion formation", "assay": "Fluorescein actin staining (FAS) test, AE lesion formation on HeLa cells", "assay_type": "cell-based, enterohemorrhagic E. coli (EHEC)"}, "EHEC strain 8624 [5]": {"system": "EHEC strain 8624", "assay_type": "cell-based, enterohemorrhagic E. coli (EHEC)"}, "[6]": {"system": "Salmonella typhimurium strain SL1344", "assay_type": "cell-based"}, "F. tularensis strain LVS": {"system": "F. tularensis strain LVS", "assay_type": "cell-based, Francisella tularensis"}, "EHEC": {"system": "EHEC", "parameters": "species or system New Zealand White rabbits", "details": "rabbit, in vivo"}, "[7]": {"system": "β1, β2 and β3 adrenergic receptors", "assay": "Live-cell intracellular cAMP (EPAC-based BRET reporter) in HEK293 cells", "parameters": "species or system human"}, "[8]": {"system": "S. typhimurium strain SL1344", "parameters": "species or system mice (129×1/SvJ)", "details": "mouse, in vivo"}, "sifA virulence gene": {"system": "sifA virulence gene", "assay_type": "cell-based, Salmonella typhimurium"}, "[9]": {"system": "F. tularensis SCHU S4 in J774 murine macrophages", "assay_type": "cell-based, Francisella tularensis"}, "[10]": {"system": "F. tularensis virulence genes", "assay_type": "cell-based, Francisella tularensis"}, "[11]": {"system": "F. tularensis strain SCHU S4", "details": "mouse, in vivo"}, "[12]": {"assay": "Toxicology studies in mice", "details": "20 mg/kg oral gavage daily for 5 days"}, "[13]": {"assay": "Pharmacokinetic analysis in mice"}, "[14]": {"system": "bacterial cells (strain MCAmp)", "assay": "Secondary screen with bla::lacZ chromosomal reporter to eliminate toxic compounds and general transcription inhibitors"}, "[15]": {"details": "CD-1 female mice, 20, 10 and 5 mg/kg IV bolus"}},
  "note": "“And” between values parts separate entries of the source, which are not always exact repeats. Equal entries are not always repeated. “Also recorded” adds a separate entry of the source.",
  "data": [
    {"smiles": "CC(=O)Nc1ccc(S(=O)(=O)Nc2ccccc2)cc1", "values": [
      {"measurement": "melting point", "result": "209 to 210", "unit": "°C"}
    ]},
    {"smiles": "O=S(=O)(Nc1ccccc1)c1ccc(NC(=S)Nc2ccccc2)cc1", "note": "[LED209, N-phenyl-4-[[(phenylamino)thioxomethyl]amino]benzenesulfonamide]", "values": [
      {"measurement": "binding of norepinephrine to QseC", "setting": "QseC [1]; 5 pM LED209", "result": "inhibits binding; also recorded: directly antagonized"},
      {"measurement": "binding of norepinephrine to QseC", "setting": "QseC [1]; 5 fM LED209", "result": "does not"},
      {"measurement": "QseC autophosphorylation", "setting": "QseC [2]; in response to 50 μM epinephrine, 5 pM LED209", "result": "inhibited"},
      {"measurement": "QseC-dependent virulence gene expression in response to AI-3", "setting": "[3]", "result": "inhibited"},
      {"measurement": "QseC-dependent virulence gene expression in response to epinephrine", "setting": "[3]", "result": "inhibited"},
      {"measurement": "expression of the stxAB genes", "setting": "[3]", "result": "decreases"},
      {"measurement": "trigger the EHEC SOS response", "setting": "[3]", "result": "does not"},
      {"measurement": "secretion of EspA and EspB", "setting": "EHEC strain 8624 [4]", "result": "inhibited the secretion"},
      {"measurement": "EHEC AE lesion formation on cultured epithelial cells", "setting": "EHEC AE lesion formation; 5 pM", "result": "abolished"},
      {"measurement": "AE lesions (pedestals)", "setting": "EHEC AE lesion formation; 5 μM and 5 pM", "result": "There are no pedestals"},
      {"measurement": "EHEC growth", "setting": "EHEC strain 8624 [5]", "result": "does not hinder growth; also recorded: does not kill or hinder EHEC growth"},
      {"measurement": "S. typhimurium growth in vitro", "setting": "[6]", "result": "does not hinder growth; also recorded: did not influence"},
      {"measurement": "F. tularensis growth", "setting": "F. tularensis strain LVS", "result": "does not hinder growth"},
      {"measurement": "EHEC colonization of the intestine", "setting": "EHEC", "result": "modest (and non-statistically significant) reduction"},
      {"measurement": "EHEC colonization, colon", "setting": "EHEC; 20 mg/kg", "result": "only a mild non-statistically significance difference"},
      {"measurement": "EHEC colonization, ileum and cecum", "setting": "EHEC; 20 mg/kg", "result": "no differences between treated and untreated animals"},
      {"measurement": "block of activation by β-adrenergic-specific agonists (cAMP generation)", "setting": "[7]; 5 μM with dobutamine, terbutaline or BRL37344", "result": "nor does it block the activation"},
      {"measurement": "activation of β adrenergic receptors (cAMP generation)", "setting": "[7]; 5 μM, no agonist", "result": "does not activate any of the 3 classes of β adrenergic receptors"},
      {"measurement": "interference with adrenergic signaling", "setting": "[7]; live cell-based assays", "result": "does not interfere with mammalian adrenergic signaling; also recorded: not influence signaling"},
      {"measurement": "reduction of S. typhimurium cfus recovered from spleens and livers", "setting": "[8]", "result": "~10", "unit": "fold"},
      {"measurement": "survival of infected mice 24 hours after infection", "setting": "[8]", "result": 80, "unit": "%"},
      {"measurement": "survival of infected mice up to day 12", "setting": "[8]", "result": 20, "unit": "%"},
      {"measurement": "expression of the sifA virulence gene", "setting": "sifA virulence gene", "result": "diminished"},
      {"measurement": "reduction of F. tularensis SCHU-S4 recovered from macrophages", "setting": "[9]", "result": 10, "unit": "fold"},
      {"measurement": "expression of F. tularensis virulence genes, including qseC", "setting": "[10]", "result": "decreased"},
      {"measurement": "deaths of mice treated with LED209 alone", "setting": "[11]; female, C3H HeN, po, 20 mg/kg", "result": "none of the mice treated with LED209 alone died"},
      {"measurement": "survival of infected mice at 175 hours post-infection", "setting": "[11]", "result": "60% and 75%"},
      {"measurement": "overt toxicity", "setting": "[11]; po, 20 mg/kg", "result": "no overt toxicity"},
      {"measurement": "survival of infected mice 9 days post-infection", "setting": "[11]; po, 20 mg/kg", "result": 80, "unit": "%"},
      {"measurement": "pathology of duodenum, colon, liver, kidney, spleen and heart sections", "setting": "[12]", "result": "did not reveal any observable pathology"},
      {"measurement": "mice weights", "setting": "[12]; vs vehicle", "result": "no significant differences"},
      {"measurement": "organ weights", "setting": "[12]; vs vehicle", "result": "no significant differences in the organ weights"},
      {"measurement": "AUC versus dose", "setting": "[13]; [15]", "result": "increases proportionally with dose"},
      {"measurement": "linearity of pharmacokinetics", "setting": "[13]; [15]", "result": "linear"},
      {"measurement": "bioavailability", "setting": "[13]; female, CD-1, mouse, plasma, oral, 20 mg/kg", "result": "~70", "unit": "%"},
      {"measurement": "oral bioavailability (in words)", "setting": "[13]; mice", "result": "orally bioavailable"},
      {"measurement": "toxicity against bacterial cells", "setting": "[14]", "result": "no toxicity against bacterial cells"}
    ]},
    {"smiles": "Cc1ccc(N(CC2=NCCN2)c2cccc(O)c2)cc1", "note": "[phentolamine, reference compound]", "values": [
      {"measurement": "binding of norepinephrine to QseC", "setting": "QseC [1]; 50 μM adrenergic antagonist", "result": "inhibited; also recorded: antagonizes this binding"},
      {"measurement": "QseC autophosphorylation", "setting": "QseC [2]; adrenergic antagonist", "result": "block QseC autophosphorylation"}
    ]},
    {"smiles": "CC(C)NCC(O)COc1cccc2ccccc12", "note": "(centres unmarked) [propranolol, reference compound]", "values": [
      {"measurement": "binding of norepinephrine to QseC", "setting": "QseC [1]; 50 μM adrenergic antagonist", "result": "has no effect on QseC"}
    ]}
  ]
}
